# Reference: US20230310388A1, “Methods and Compositions for Treating Fungal Infections” (Neoculi Pty Ltd, priority 2020, published 2023)
# Values joined by “and” are separate entries in the source; they are usually repeats but may differ in a detail not shown here. Identical values can stand only once.
# Test system: Candida albicans ATCC14053
# Assay: Broth micro-dilution screen at 16 μg/mL and MIC (Example 9)
# Format: cell-based
# Settings: C. albicans ATCC14053; test range 0.25-64 μg/mL; duplicate
# Description: The antifungal activity of 201 NCL analogs against Candida albicans ATCC14053 in vitro was investigated. A broth micro-dilution method was used, according to CLSI guidelines as described. NCL analogs were dissolved in DMSO and originally screened at a single concentration of 16 μg/mL.
row,Compound,MIC
1,Cl.N=C(NN=Cc1ccc(F)cc1)NN=Cc1ccc(F)cc1 [NCL021],0.5 µg/mL and 1 µg/mL
2,COc1ccc(C=NNC(=N)NN=Cc2ccc(OC)cc2)cc1.Cl [NCL027],8 µg/mL and 16 µg/mL
3,Cc1ccc(C=NNC(=N)NN=Cc2ccc(C)cc2)cc1.Cl [NCL038],2 µg/mL and 4 µg/mL
4,Cc1ccccc1/C=N/NC(=N)N/N=C/c1ccccc1C.Cl [NCL039],4 µg/mL and 8 µg/mL
5,Cc1cccc(C=NNC(=N)NN=Cc2cccc(C)c2)c1.Cl [NCL040],8 µg/mL and 16 µg/mL
6,Cl.N=C(NN=Cc1cccc(Cl)c1)NN=Cc1cccc(Cl)c1 [NCL054],4 µg/mL and 8 µg/mL
7,Cl.N=C(NN=Cc1ccc(O)c(O)c1O)NN=Cc1ccc(O)c(O)c1O [NCL105],2 µg/mL and 4 µg/mL
8,Cl.N=C(NN=Cc1ccccc1O)NN=Cc1ccccc1O [NCL107],2 µg/mL and 4 µg/mL
9,CCCc1ccc(C=NNC(=N)NN=Cc2ccc(CCC)cc2)cc1.Cl [NCL121],4 µg/mL and 8 µg/mL
10,Cl.N=C(NN=Cc1ccc(F)c(F)c1)NN=Cc1ccc(F)c(F)c1 [NCL123],1 µg/mL
11,C#Cc1cccc(C=NNC(=N)NN=Cc2cccc(C#C)c2)c1.Cl [NCL126],4 µg/mL
12,Cl.N=C(NN=Cc1ccc(Br)cc1)NN=Cc1ccc(Br)cc1 [NCL134],<1 µg/mL
13,CSc1ccc(C=NNC(=N)NN=Cc2ccc(SC)cc2)cc1.Cl [NCL140],1 µg/mL and 2 µg/mL
14,Cl.N=C(NN=Cc1ccc2[nH]ccc2c1)NN=Cc1ccc2[nH]ccc2c1 [NCL146],4 µg/mL and 8 µg/mL
15,COc1ccc(C=CC=NNC(=N)NN=CC=Cc2ccc(OC)cc2)cc1.Cl [NCL150],1 µg/mL

# Same assay, conditions: single concentration 16 μg/mL; Growth or No growth of C. albicans ATCC14053
row,Compound,Screen at 16 μg/mL
1,O=C(NN=Cc1ccc(Cl)cc1)NN=Cc1ccc(Cl)cc1 [NCL001],Growth
2,O=C(NN=Cc1ccccc1Cl)NN=Cc1ccccc1Cl [NCL002],Growth
3,COc1ccc(C=NNC(=O)NN=Cc2ccc(OC)cc2)cc1 [NCL006],Growth
4,N#Cc1ccc(C=NNC(=O)NN=Cc2ccc(C#N)cc2)cc1 [NCL007],Growth
5,COc1cccc(C=NNC(=O)NN=Cc2cccc(OC)c2)c1 [NCL010],Growth
6,O=C(NN=Cc1cccc(C(F)(F)F)c1)NN=Cc1cccc(C(F)(F)F)c1 [NCL011],Growth
7,O=C(NN=Cc1ccc(C(F)(F)F)cc1)NN=Cc1ccc(C(F)(F)F)cc1 [NCL012],Growth
8,O=C(NN=Cc1ccccc1C(F)(F)F)NN=Cc1ccccc1C(F)(F)F [NCL013],Growth
9,Cl.N=C(N)NN=Cc1ccccc1Cl [NCL015],Growth
10,Cl.N=C(N)NN=Cc1ccccc1F [NCL016],Growth
11,Cl.N=C(N)NN=Cc1cccc(F)c1 [NCL017],Growth
12,Cc1ccccc1C=NNC(=O)NN=Cc1ccccc1C [NCL018],Growth
13,Cc1cccc(C=NNC(=O)NN=Cc2cccc(C)c2)c1 [NCL019],Growth
14,Cl.N=C(NN=Cc1ccc(F)cc1)NN=Cc1ccc(F)cc1 [NCL021],No growth
15,Cl.N=C(NN=Cc1ccccc1F)NN=Cc1ccccc1F [NCL022],Growth
16,Cl.N#Cc1cccc(C=NNC(=N)NN=Cc2cccc(C#N)c2)c1 [NCL026],Growth
17,COc1ccc(C=NNC(=N)NN=Cc2ccc(OC)cc2)cc1.Cl [NCL027],No growth
18,COc1ccccc1C=NNC(=N)NN=Cc1ccccc1OC.Cl [NCL028],Growth
19,COc1cccc(C=NNC(=N)NN=Cc2cccc(OC)c2)c1.Cl [NCL029],Growth
20,Cl.N=C(N)N/N=C/c1ccc(Cl)cc1 [NCL030],Growth
21,Cl.N#Cc1ccc(C=NNC(=N)N)cc1 [NCL031],Growth

row,Compound,Screen at 16 μg/mL
1,Cl.N#Cc1cccc(C=NNC(=N)N)c1 [NCL033],Growth
2,Cl.N=C(NN=Cc1ccccc1C(F)(F)F)NN=Cc1ccccc1C(F)(F)F [NCL036],Growth
3,Cl.N=C(NN=Cc1cccc(C(F)(F)F)c1)NN=Cc1cccc(C(F)(F)F)c1 [NCL037],Growth
4,Cc1ccc(C=NNC(=N)NN=Cc2ccc(C)cc2)cc1.Cl [NCL038],No growth
5,Cc1ccccc1/C=N/NC(=N)N/N=C/c1ccccc1C.Cl [NCL039],No growth
6,Cc1cccc(C=NNC(=N)NN=Cc2cccc(C)c2)c1.Cl [NCL040],No growth
7,Cl.N=C(N)N/N=C/c1ccc(C(F)(F)F)cc1 [NCL041],Growth
8,Cl.N=C(N)NN=Cc1ccccc1C(F)(F)F [NCL042],Growth
9,Cl.N=C(N)NN=Cc1cccc(C(F)(F)F)c1 [NCL043],Growth
10,Cc1ccc(/C=N/NC(=N)N)cc1.Cl [NCL044],Growth
11,Cc1ccccc1C=NNC(=N)N.Cl [NCL045],Growth
12,Cl.N=C(NN=Cc1cccc(Cl)c1)NN=Cc1cccc(Cl)c1 [NCL054],No growth
13,Cl.N=C(NN=Cc1ccc(O)c(O)c1O)NN=Cc1ccc(O)c(O)c1O [NCL105],No growth
14,Cl.N=C(NN=Cc1ccccc1O)NN=Cc1ccccc1O [NCL107],No growth
15,CCCc1ccc(C=NNC(=N)NN=Cc2ccc(CCC)cc2)cc1.Cl [NCL121],No growth
16,Cl.N=C(NN=Cc1ccc(F)c(F)c1)NN=Cc1ccc(F)c(F)c1 [NCL123],No growth
17,C#Cc1cccc(C=NNC(=N)NN=Cc2cccc(C#C)c2)c1.Cl [NCL126],No growth
18,Cl.N=C(NN=Cc1ccc(Br)cc1)NN=Cc1ccc(Br)cc1 [NCL134],No growth
19,CSc1ccc(C=NNC(=N)NN=Cc2ccc(SC)cc2)cc1.Cl [NCL140],No growth
20,Cl.N=C(NN=Cc1ccc2[nH]ccc2c1)NN=Cc1ccc2[nH]ccc2c1 [NCL146],No growth
21,COc1ccc(C=CC=NNC(=N)NN=CC=Cc2ccc(OC)cc2)cc1.Cl [NCL150],No growth
